Data reported in patent US11040028B2, “Penicinotam derivative, preparation method and use thereof” (OCEAN UNIVERSITY OF CHINA, priority 2017, dated 2021).

The molecules below were run on human fibrosarcoma cells HT-1080 (assay: Anti-fibrosis activity test: inhibition of proliferation of human fibrosarcoma cells HT-1080 (CCK-8)). Details: Homo sapiens, HT-1080, 48 h, human fibrosarcoma cells HT-1080, CCK-8, 48 hours.
Type: cell-based
In short: (§1)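 A CCK-8 proliferation assay was run: cells at 2×10^4 cells/mL, adherent for 24 h, then incubated 48 h at 37° C with compound dilutions. A450 was recorded 2 h after CCK-8 addition and converted to percent inhibition versus blank for IC50 determination.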
With `O=C1c2c(n(Cc3ccccc3Br)c3ccccc3c2=O)-c2cccn21` [Compound 612a, 4-(2-Bromobenzyl)-9H-pyrrolizino[1,2-b]quinoline-9,10(4H)-dione] the IC50 was 0.05 to 5 mM.
`O=C1c2c(n(Cc3ccc(Cl)cc3F)c3ccccc3c2=O)-c2cccn21` [Compound 602a, 4-(4-Chloro-2-fluorobenzyl)-9H-pyrrolizino[1,2-b]quinoline-9,10(4H)-dione] showed an IC50 of 0.05 to 5 mM.
`O=C1c2c(n(Cc3ccc(Cl)cc3)c3cc(F)ccc3c2=O)-c2cccn21` [Compound 496a, 4-(4-Chlorobenzyl)-6-fluoro-9H-pyrrolizino[1,2-b]quinoline-9,10(4H)-dione] showed an IC50 of 0.05 to 5 mM.
In the case of `O=C1c2c(nc3ccccc3c2OCCN2CCNCC2)-c2cccn21` [Compound 98b, 9-(2-(piperazin-1-yl)ethoxy)-10H-pyrrolizino[1,2-b]quinolin-10-one], the IC50 is reported as 0.05 to 5 mM.
Work on `O=C1c2c(nc3cc(C(F)(F)F)ccc3c2O)-c2cccn21` [Compound 536b, 9-hydroxy-6-(trifluoromethyl)-10H-pyrrolizino[1,2-b]quinolin-10-one] yielded an IC50 of 0.05 to 5 mM.

Each molecule was assayed on NF-κB (assay: Immunological activity test: inhibition of NF-κB activity). Details: initial concentration of 30 μM; a/b isomers given as first/second symbol; read-out: IC50 (μM), inhibitory activity against NF-κB.
Type: cell-based
In short: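 Compounds were first screened for inhibition of NF-κB activity at 30 μM, with parthenolide as the positive control. IC50 values were then determined for the compounds by further analysis of the assay data.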
With `O=C1c2c(n(Cc3ccccc3Br)c3ccccc3c2=O)-c2cccn21` [Compound 612a, 4-(2-Bromobenzyl)-9H-pyrrolizino[1,2-b]quinoline-9,10(4H)-dione] the IC50 was 1 to 10 µM.
`O=C1c2c(n(Cc3ccc(Cl)cc3F)c3ccccc3c2=O)-c2cccn21` [Compound 602a, 4-(4-Chloro-2-fluorobenzyl)-9H-pyrrolizino[1,2-b]quinoline-9,10(4H)-dione] was tested, and the IC50 was 1 to 10 µM.
With `O=C1c2c(n(Cc3ccc(Cl)cc3)c3cc(F)ccc3c2=O)-c2cccn21` [Compound 496a, 4-(4-Chlorobenzyl)-6-fluoro-9H-pyrrolizino[1,2-b]quinoline-9,10(4H)-dione] the IC50 was 10 to 50 µM.
For `O=C1c2c(nc3ccccc3c2OCCN2CCNCC2)-c2cccn21` [Compound 98b, 9-(2-(piperazin-1-yl)ethoxy)-10H-pyrrolizino[1,2-b]quinolin-10-one], the IC50 was 1 to 10 µM.
`O=C1c2c(nc3cc(C(F)(F)F)ccc3c2O)-c2cccn21` [Compound 536b, 9-hydroxy-6-(trifluoromethyl)-10H-pyrrolizino[1,2-b]quinolin-10-one] gave an IC50 of 1 to 10 µM.

The molecules below were run on cardiac fibroblast RAT-iCell-C002 (assay: Anti-fibrosis activity test: inhibition of proliferation of cardiac fibroblast RAT-iCell-C002 (CCK-8)). Details: Cardiac fibroblast, 48 h, cardiac fibroblast RAT-iCell-C002, CCK-8, 48 hours.
Type: cell-based
In short: as §1
In the case of `O=C1c2c(n(Cc3ccccc3Br)c3ccccc3c2=O)-c2cccn21` [Compound 612a, 4-(2-Bromobenzyl)-9H-pyrrolizino[1,2-b]quinoline-9,10(4H)-dione], the IC50 is reported as 0.05 to 5 mM.
`O=C1c2c(n(Cc3ccc(Cl)cc3F)c3ccccc3c2=O)-c2cccn21` [Compound 602a, 4-(4-Chloro-2-fluorobenzyl)-9H-pyrrolizino[1,2-b]quinoline-9,10(4H)-dione] gave an IC50 of 0.05 to 5 mM.
`O=C1c2c(n(Cc3ccc(Cl)cc3)c3cc(F)ccc3c2=O)-c2cccn21` [Compound 496a, 4-(4-Chlorobenzyl)-6-fluoro-9H-pyrrolizino[1,2-b]quinoline-9,10(4H)-dione] was tested, and the IC50 was 0.05 to 5 mM.
`O=C1c2c(nc3ccccc3c2OCCN2CCNCC2)-c2cccn21` [Compound 98b, 9-(2-(piperazin-1-yl)ethoxy)-10H-pyrrolizino[1,2-b]quinolin-10-one] was tested, and the IC50 was 0.05 to 5 mM.
`O=C1c2c(nc3cc(C(F)(F)F)ccc3c2O)-c2cccn21` [Compound 536b, 9-hydroxy-6-(trifluoromethyl)-10H-pyrrolizino[1,2-b]quinolin-10-one] was tested, and the IC50 was 0.05 to 5 mM.

Each molecule was assayed on mouse macrophages (RAW264.7) (assay: Lipopolysaccharide-induced NO secretion in macrophages (Griess)). Details: Mus musculus, RAW264.7, 24 h, RAW264.7, LPS 1 μg/ml, a/b isomers given as first/second symbol, read-out: IC50 (μM), inhibition of lipopolysaccharide-induced NO secretion in macrophages.
Type: cell-based
In short: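 Absorbance at 548 nm after Griess reagent addition to culture supernatant gave NO content; inhibition rate was derived relative to blank control. Cells were mouse RAW264.7 macrophages exposed to compounds and 1 μg/ml LPS for 24 hours.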
Work on `O=C1c2c(n(Cc3ccccc3Br)c3ccccc3c2=O)-c2cccn21` [Compound 612a, 4-(2-Bromobenzyl)-9H-pyrrolizino[1,2-b]quinoline-9,10(4H)-dione] yielded an IC50 of 10 to 50 µM.
In the case of `O=C1c2c(n(Cc3ccc(Cl)cc3F)c3ccccc3c2=O)-c2cccn21` [Compound 602a, 4-(4-Chloro-2-fluorobenzyl)-9H-pyrrolizino[1,2-b]quinoline-9,10(4H)-dione], the IC50 is reported as 1 to 10 µM.
Work on `O=C1c2c(n(Cc3ccc(Cl)cc3)c3cc(F)ccc3c2=O)-c2cccn21` [Compound 496a, 4-(4-Chlorobenzyl)-6-fluoro-9H-pyrrolizino[1,2-b]quinoline-9,10(4H)-dione] yielded an IC50 of 10 to 50 µM.
Molecule `O=C1c2c(nc3ccccc3c2OCCN2CCNCC2)-c2cccn21` [Compound 98b, 9-(2-(piperazin-1-yl)ethoxy)-10H-pyrrolizino[1,2-b]quinolin-10-one] has an IC50 of 1 to 10 µM.
`O=C1c2c(nc3cc(C(F)(F)F)ccc3c2O)-c2cccn21` [Compound 536b, 9-hydroxy-6-(trifluoromethyl)-10H-pyrrolizino[1,2-b]quinolin-10-one] showed an IC50 of 1 to 10 µM.

The molecules below were run on human hepatic stellate cells LX-2 (assay: Anti-fibrosis activity test: inhibition of proliferation of human hepatic stellate cells LX-2 (CCK-8)). Details: Homo sapiens, 48 h, human hepatic stellate cells LX-2, CCK-8, 48 hours.
Type: cell-based
In short: as §1
Molecule `O=C1c2c(n(Cc3ccccc3Br)c3ccccc3c2=O)-c2cccn21` [Compound 612a, 4-(2-Bromobenzyl)-9H-pyrrolizino[1,2-b]quinoline-9,10(4H)-dione] has an IC50 of 0.05 to 5 mM.
In the case of `O=C1c2c(n(Cc3ccc(Cl)cc3F)c3ccccc3c2=O)-c2cccn21` [Compound 602a, 4-(4-Chloro-2-fluorobenzyl)-9H-pyrrolizino[1,2-b]quinoline-9,10(4H)-dione], the IC50 is reported as 0.05 to 5 mM.
In the case of `O=C1c2c(n(Cc3ccc(Cl)cc3)c3cc(F)ccc3c2=O)-c2cccn21` [Compound 496a, 4-(4-Chlorobenzyl)-6-fluoro-9H-pyrrolizino[1,2-b]quinoline-9,10(4H)-dione], the IC50 is reported as 0.05 to 5 mM.
Work on `O=C1c2c(nc3ccccc3c2OCCN2CCNCC2)-c2cccn21` [Compound 98b, 9-(2-(piperazin-1-yl)ethoxy)-10H-pyrrolizino[1,2-b]quinolin-10-one] yielded an IC50 of 0.05 to 5 mM.
In the case of `O=C1c2c(nc3cc(C(F)(F)F)ccc3c2O)-c2cccn21` [Compound 536b, 9-hydroxy-6-(trifluoromethyl)-10H-pyrrolizino[1,2-b]quinolin-10-one], the IC50 is reported as 0.05 to 5 mM.

Each molecule was assayed on human embryonic lung fibroblast IMR-90 (assay: Anti-fibrosis activity test: inhibition of proliferation of human embryonic lung fibroblast IMR-90 (CCK-8)). Details: human embryonic lung fibroblast IMR-90, CCK-8, 48 hours.
Type: cell-based
In short: as §1
With `O=C1c2c(n(Cc3ccccc3Br)c3ccccc3c2=O)-c2cccn21` [Compound 612a, 4-(2-Bromobenzyl)-9H-pyrrolizino[1,2-b]quinoline-9,10(4H)-dione] the IC50 was 0.05 to 5 mM.
In the case of `O=C1c2c(n(Cc3ccc(Cl)cc3F)c3ccccc3c2=O)-c2cccn21` [Compound 602a, 4-(4-Chloro-2-fluorobenzyl)-9H-pyrrolizino[1,2-b]quinoline-9,10(4H)-dione], the IC50 is reported as 0.05 to 5 mM.
Molecule `O=C1c2c(n(Cc3ccc(Cl)cc3)c3cc(F)ccc3c2=O)-c2cccn21` [Compound 496a, 4-(4-Chlorobenzyl)-6-fluoro-9H-pyrrolizino[1,2-b]quinoline-9,10(4H)-dione] has an IC50 of 0.05 to 5 mM.
With `O=C1c2c(nc3ccccc3c2OCCN2CCNCC2)-c2cccn21` [Compound 98b, 9-(2-(piperazin-1-yl)ethoxy)-10H-pyrrolizino[1,2-b]quinolin-10-one] the IC50 was 0.05 to 5 mM.
With `O=C1c2c(nc3cc(C(F)(F)F)ccc3c2O)-c2cccn21` [Compound 536b, 9-hydroxy-6-(trifluoromethyl)-10H-pyrrolizino[1,2-b]quinolin-10-one] the IC50 was 0.05 to 5 mM.

These molecules were tested on human lung fibroblasts HFL1 (assay: Anti-fibrosis activity test: inhibition of proliferation of human lung fibroblasts HFL1 (CCK-8)). Details: Homo sapiens, HFL1, 48 h, human lung fibroblasts HFL1, CCK-8, 48 hours.
Type: cell-based
In short: as §1
`O=C1c2c(n(Cc3ccccc3Br)c3ccccc3c2=O)-c2cccn21` [Compound 612a, 4-(2-Bromobenzyl)-9H-pyrrolizino[1,2-b]quinoline-9,10(4H)-dione] gave an IC50 of 0.05 to 5 mM.
`O=C1c2c(n(Cc3ccc(Cl)cc3F)c3ccccc3c2=O)-c2cccn21` [Compound 602a, 4-(4-Chloro-2-fluorobenzyl)-9H-pyrrolizino[1,2-b]quinoline-9,10(4H)-dione] showed an IC50 of 0.05 to 5 mM.
In the case of `O=C1c2c(n(Cc3ccc(Cl)cc3)c3cc(F)ccc3c2=O)-c2cccn21` [Compound 496a, 4-(4-Chlorobenzyl)-6-fluoro-9H-pyrrolizino[1,2-b]quinoline-9,10(4H)-dione], the IC50 is reported as 0.05 to 5 mM.
For `O=C1c2c(nc3ccccc3c2OCCN2CCNCC2)-c2cccn21` [Compound 98b, 9-(2-(piperazin-1-yl)ethoxy)-10H-pyrrolizino[1,2-b]quinolin-10-one], the IC50 was 0.05 to 5 mM.
In the case of `O=C1c2c(nc3cc(C(F)(F)F)ccc3c2O)-c2cccn21` [Compound 536b, 9-hydroxy-6-(trifluoromethyl)-10H-pyrrolizino[1,2-b]quinolin-10-one], the IC50 is reported as 0.05 to 5 mM.

Each molecule was assayed on human dermal fibroblasts CCC-ESF-1 (assay: Anti-fibrosis activity test: inhibition of proliferation of human dermal fibroblasts CCC-ESF-1 (CCK-8)). Details: Fibroblast; human dermal fibroblasts CCC-ESF-1, CCK-8, 48 hours.
Type: cell-based
In short: as §1
`O=C1c2c(n(Cc3ccccc3Br)c3ccccc3c2=O)-c2cccn21` [Compound 612a, 4-(2-Bromobenzyl)-9H-pyrrolizino[1,2-b]quinoline-9,10(4H)-dione] showed an IC50 of 0.05 to 5 mM.
For `O=C1c2c(n(Cc3ccc(Cl)cc3F)c3ccccc3c2=O)-c2cccn21` [Compound 602a, 4-(4-Chloro-2-fluorobenzyl)-9H-pyrrolizino[1,2-b]quinoline-9,10(4H)-dione], the IC50 was 0.05 to 5 mM.
In the case of `O=C1c2c(n(Cc3ccc(Cl)cc3)c3cc(F)ccc3c2=O)-c2cccn21` [Compound 496a, 4-(4-Chlorobenzyl)-6-fluoro-9H-pyrrolizino[1,2-b]quinoline-9,10(4H)-dione], the IC50 is reported as 0.05 to 5 mM.
`O=C1c2c(nc3ccccc3c2OCCN2CCNCC2)-c2cccn21` [Compound 98b, 9-(2-(piperazin-1-yl)ethoxy)-10H-pyrrolizino[1,2-b]quinolin-10-one] showed an IC50 of 0.05 to 5 mM.
`O=C1c2c(nc3cc(C(F)(F)F)ccc3c2O)-c2cccn21` [Compound 536b, 9-hydroxy-6-(trifluoromethyl)-10H-pyrrolizino[1,2-b]quinolin-10-one] showed an IC50 of 0.05 to 5 mM.

The molecules below were run on BHK-21 cells (assay: Anti-fibrosis activity test: inhibition of BHK-21 cell proliferation (CCK-8)). Details: Mesocricetus auratus, BHK-21, 48 h, CCK-8, 48 hours after administration.
Type: cell-based
In short: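 BHK-21 cells seeded at 2×10^4 cells/mL, allowed to adhere 24 h at 37° C, 5% CO2, then exposed to compounds at graded concentrations in triplicate for 48 h. CCK-8 added for 2 h and absorbance read at 450 nm; inhibition rate taken as (1−Ai/Ao)×100% and IC50 fitted.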
`O=C1c2c(n(Cc3ccccc3Br)c3ccccc3c2=O)-c2cccn21` [Compound 612a, 4-(2-Bromobenzyl)-9H-pyrrolizino[1,2-b]quinoline-9,10(4H)-dione] gave an IC50 of 0.05 to 5 mM.
For `O=C1c2c(n(Cc3ccc(Cl)cc3F)c3ccccc3c2=O)-c2cccn21` [Compound 602a, 4-(4-Chloro-2-fluorobenzyl)-9H-pyrrolizino[1,2-b]quinoline-9,10(4H)-dione], the IC50 was 0.05 to 5 mM.
In the case of `O=C1c2c(n(Cc3ccc(Cl)cc3)c3cc(F)ccc3c2=O)-c2cccn21` [Compound 496a, 4-(4-Chlorobenzyl)-6-fluoro-9H-pyrrolizino[1,2-b]quinoline-9,10(4H)-dione], the IC50 is reported as 0.05 to 5 mM.
`O=C1c2c(nc3ccccc3c2OCCN2CCNCC2)-c2cccn21` [Compound 98b, 9-(2-(piperazin-1-yl)ethoxy)-10H-pyrrolizino[1,2-b]quinolin-10-one] showed an IC50 of 0.05 to 5 mM.
For `O=C1c2c(nc3cc(C(F)(F)F)ccc3c2O)-c2cccn21` [Compound 536b, 9-hydroxy-6-(trifluoromethyl)-10H-pyrrolizino[1,2-b]quinolin-10-one], the IC50 was 0.05 to 5 mM.
